Test results from paper PMC7926352, “Synthesis, Characterization and In Vitro Evaluation of Novel 5-Ene-thiazolo[3,2-b][1,2,4]triazole-6(5H)-ones as Possible Anticancer Agents” (Molecules, 2021).
Read-outs that look alike come from different tables or passages of the source.

Legend:
A549/ATCC = format: cell-based; details: NSCLC
Melanoma cell lines = details: for GI50 / CC50: Homo sapiens
[1] = tested on: Ovarian Cancer cell lines; details: for GI50 / CC50: Homo sapiens
Leukemia cell lines = details: for GI50 / CC50: Homo sapiens
[2] = tested on: Prostate Cancer cell lines; details: for GI50 / CC50: Homo sapiens
[3] = read-out: GI50, values range inside panel
[4] = read-out: LC50, values range inside panel

Structure (SMILES): O=C(COc1ccc(Cl)cc1/C=c1\sc2ncnn2c1=O)Nc1ccc(Cl)cc1 [Compound 2h, (Z)-2-(4-Chloro-2-((6-oxothiazolo[3,2-b][1,2,4]triazol-5(6H)-ylidene)methyl)phenoxy)-N-(4-chlorophenyl)acetamide]
- GI50 (SF-295; Homo sapiens, SF-295): 1.86 µM
- CC50 (SF-295; Homo sapiens, SF-295, read-out: LC50): 18.6 µM
- TGI (SF-295; SF-295, CNS Cancer): 5.24 µM
- TGI (HCT-116; HCT-116, Colon cancer): 20.89 µM
- GI50 (HCT-116; Homo sapiens, HCT-116): 7.58 µM
- CC50 (HCT-116; Homo sapiens, HCT-116, read-out: LC50): 45.7 µM
- GI50 (U251; Homo sapiens, U-251): 4.07 µM
- CC50 (U251; Homo sapiens, U-251, read-out: LC50): 38 µM
- TGI (U251; U251, CNS Cancer): 14.45 µM
- TGI (BT-549; BT-549, Breast Cancer): 8.51 µM
- GI50 (BT-549; Homo sapiens, BT-549): 2.34 µM
- CC50 (BT-549; Homo sapiens, BT-549, read-out: LC50): 35.5 µM
- GI50 (A549/ATCC; Homo sapiens): 15.5 µM
- CC50 (A549/ATCC; Homo sapiens, read-out: LC50 (the source's name)): 60.2 µM
- TGI (A549/ATCC): 30.90 µM
- TGI (DU-145; DU-145, Prostate Cancer): 4.46 µM
- GI50 (DU-145; Homo sapiens, DU-145): 1.54 µM
- CC50 (DU-145; Homo sapiens, DU-145, read-out: LC50): 15.8 µM
- GI50 (KM12; Homo sapiens, KM12): 2.45 µM
- CC50 (KM12; Homo sapiens, KM12, read-out: LC50): 33.1 µM
- TGI (KM12; KM12, Colon cancer): 10.96 µM
- GI50 (SK-OV-3; Homo sapiens, SK-OV-3): 15.5 µM
- CC50 (SK-OV-3; Homo sapiens, SK-OV-3, read-out: LC50): 53.7 µM
- TGI (SK-OV-3; SK-OV-3, Ovarian Cancer): 28.84 µM
- GI50 (LOX IMVI; Homo sapiens): 2.63 µM
- CC50 (LOX IMVI; Homo sapiens, read-out: LC50): 33.1 µM
- TGI (LOX IMVI; Melanoma): 11.22 µM
- GI50 (ACHN; Homo sapiens): 12.6 µM
- CC50 (ACHN; Homo sapiens, read-out: LC50): 50.1 µM
- TGI (ACHN; Renal Cancer): 25.11 µM
- TGI (NCI/ADR-RES; Breast Cancer): 41.68 µM
- GI50 (NCI/ADR-RES; Homo sapiens): 15.5 µM
- CC50 (NCI/ADR-RES; Homo sapiens, read-out: LC50): > 100 µM
- GI50 (OVCAR-3; Homo sapiens, OVCAR-3): 2.18 µM
- CC50 (OVCAR-3; Homo sapiens, OVCAR-3, read-out: LC50): 19.5 µM
- TGI (OVCAR-3; OVCAR-3, Ovarian Cancer): 5.62 µM
- GI50 (OVCAR-4; Homo sapiens, OVCAR-4): 8.91 µM
- CC50 (OVCAR-4; Homo sapiens, OVCAR-4, read-out: LC50): 97.7 µM
- TGI (OVCAR-4; OVCAR-4, Ovarian Cancer): 30.90 µM
- GI50 (Melanoma cell lines; read-out: GI50, panel MG_MID): 4.79 µM
- GI50 (Melanoma cell lines; [3]): 2.63 to 8.31 µM
- CC50 (Melanoma cell lines; read-out: LC50, panel MG_MID): 41.2 µM
- CC50 (Melanoma cell lines; [4]): 33.1 to 51.3 µM
- TGI, panel MG_MID (Melanoma cell lines; Melanoma subpanel): 16.49 µM
- TGI, values range inside panel (Melanoma cell lines; Melanoma subpanel): 11.22 to 20.89 µM
- GI50 (SNB-75; Homo sapiens, SNB-75): 3.38 µM
- CC50 (SNB-75; Homo sapiens, SNB-75, read-out: LC50): 87.1 µM
- TGI (SNB-75; SNB-75, CNS Cancer): 15.48 µM
- GI50 (SK-MEL-2; Homo sapiens, SK-MEL-2): 3.98 µM
- CC50 (SK-MEL-2; Homo sapiens, SK-MEL-2, read-out: LC50): 38.9 µM
- TGI (SK-MEL-2; SK-MEL-2, Melanoma): 13.80 µM
- GI50 (TK-10; Homo sapiens, TK-10): 7.58 µM
- CC50 (TK-10; Homo sapiens, TK-10, read-out: LC50): 35.5 µM
- TGI (TK-10; TK-10, Renal Cancer): 20.41 µM
- TGI (CAKI-1; CAKI-1, Renal Cancer): 8.12 µM
- GI50 (CAKI-1; Homo sapiens, CAKI-1): 2.39 µM
- CC50 (CAKI-1; Homo sapiens, CAKI-1, read-out: LC50): 28.8 µM
- GI50 (SN12C; Homo sapiens): 1.62 µM
- CC50 (SN12C; Homo sapiens, read-out: LC50): 41.7 µM
- TGI (SN12C; Renal Cancer): 12.88 µM
- GI50 (EKVX; Homo sapiens): 2.51 µM
- CC50 (EKVX; Homo sapiens, read-out: LC50): 31.6 µM
- TGI (EKVX; NSCLC): 9.99 µM
- GI50 (SW-620; Homo sapiens, SW-620): 4.26 µM
- CC50 (SW-620; Homo sapiens, SW-620, read-out: LC50): 38 µM
- TGI (SW-620; SW-620, Colon cancer): 14.79 µM
- TGI (HT29; HT29, Colon cancer): 15.13 µM
- GI50 (HT29; Homo sapiens, HT-29): 4.67 µM
- CC50 (HT29; Homo sapiens, HT-29, read-out: LC50): 38.9 µM
- GI50 (OVCAR-8; Homo sapiens, OVCAR-8): 3.16 µM
- CC50 (OVCAR-8; Homo sapiens, OVCAR-8, read-out: LC50): 41.7 µM
- TGI (OVCAR-8; OVCAR-8, Ovarian Cancer): 12.88 µM
- GI50 (SR; Homo sapiens): 1.38 µM
- CC50 (SR; Homo sapiens, read-out: LC50): 17.4 µM
- TGI (SR; Leukemia): 4.07 µM
- TGI (HS 578T; HS 578T, Breast Cancer): 5.24 µM
- GI50 (HS 578T; Homo sapiens, Hs-578T): 2.04 µM
- CC50 (HS 578T; Homo sapiens, Hs-578T, read-out: LC50): 33.9 µM
- GI50 ([1]; read-out: GI50, panel MG_MID): 8.05 µM
- GI50 [1, 3]: 2.11 to 15.5 µM
- CC50 ([1]; read-out: LC50, panel MG_MID): 52.1 µM
- CC50 [1, 4]: 19.5 to 97.7 µM
- TGI, panel MG_MID ([1]; Ovarian Cancer subpanel): 20.34 µM
- TGI, values range inside panel ([1]; Ovarian Cancer subpanel): 5.62 to 30.90 µM
- TGI (HOP-62; HOP-62, NSCLC): 16.59 µM
- GI50 (HOP-62; Homo sapiens, HOP-62): 4.67 µM
- CC50 (HOP-62; Homo sapiens, HOP-62, read-out: LC50): 42.6 µM
- GI50 (OVCAR-5; Homo sapiens, OVCAR-5): 11.2 µM
- CC50 (OVCAR-5; Homo sapiens, OVCAR-5, read-out: LC50): 47.9 µM
- TGI (OVCAR-5; OVCAR-5, Ovarian Cancer): 23.44 µM
- GI50 (Leukemia cell lines; read-out: GI50, panel MG_MID): 1.92 µM
- GI50 (Leukemia cell lines; [3]): 1.35 to 2.69 µM
- CC50 (Leukemia cell lines; read-out: LC50, panel MG_MID): 26.8 µM
- CC50 (Leukemia cell lines; [4]): 7.58 to 49 µM
- TGI, panel MG_MID (Leukemia cell lines; Leukemia subpanel): 6.85 µM
- TGI, values range inside panel (Leukemia cell lines; Leukemia subpanel): 3.16 to 14.45 µM
- GI50 ([2]; read-out: GI50, panel MG_MID): 2.67 µM
- GI50 [2, 3]: 1.54 to 3.8 µM
- CC50 ([2]; read-out: LC50, panel MG_MID): 30.8 µM
- CC50 [2, 4]: 15.8 to 45.7 µM
- TGI, panel MG_MID ([2]; Prostate Cancer subpanel): 10.34 µM
- TGI, values range inside panel ([2]; Prostate Cancer subpanel): 4.46 to 16.21 µM
- TGI (786-0; 786-0, Renal Cancer): 15.84 µM
- GI50 (786-0; Homo sapiens, 786-0): 4.16 µM
- CC50 (786-0; Homo sapiens, 786-0, read-out: LC50): 39.8 µM
